# Reference: patent US20260125382A1, “COMPOUNDS FOR INHIBITING OR DEGRADING CDK2 AND/OR CDK9 AND MEDICINAL USE THEREOF” (KOREA RESEARCH INSTITUTE OF CHEMICAL TECHNOLOGY, priority 2022, published 2026)
# Assays:
# CDK2 = biological target: T1, CDK2 (Homo sapiens, UniProt P24941); assay: CDK protein degradation activity (Western blotting), CDK2; assay type: cell-based; conditions: MDA-MB-231 cells, 16 hours, Western blot
# T1 construct: endogenous in cells; host or cells: MDA-MB-231
# Procedure, shortened: (§1)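 CDK2 and CDK9 protein levels measured by Western blot with densitometry, using tubulin as loading reference. Cells were MDA-MB-231, exposed for 16 h to 100 nM, 1 μM or 10 μM compound or to DMSO.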
# CDK9 = biological target: T2, CDK9 (Homo sapiens, UniProt P50750); assay: CDK protein degradation activity (Western blotting), CDK9; assay type: cell-based; conditions: MDA-MB-231 cells, 16 hours, Western blot
# T2 construct: endogenous in cells; host or cells: MDA-MB-231
# Procedure, shortened: as §1
# T2 sequence (P50750 whole entry): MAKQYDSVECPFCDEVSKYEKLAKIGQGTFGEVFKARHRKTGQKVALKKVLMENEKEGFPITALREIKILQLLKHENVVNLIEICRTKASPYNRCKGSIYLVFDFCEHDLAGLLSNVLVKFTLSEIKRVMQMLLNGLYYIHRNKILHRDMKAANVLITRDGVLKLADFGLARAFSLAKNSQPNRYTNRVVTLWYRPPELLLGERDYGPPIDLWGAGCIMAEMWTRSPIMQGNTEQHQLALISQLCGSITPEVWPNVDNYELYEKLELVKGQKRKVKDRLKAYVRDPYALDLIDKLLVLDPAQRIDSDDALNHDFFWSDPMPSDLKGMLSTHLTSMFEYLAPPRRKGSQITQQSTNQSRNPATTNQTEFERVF
Enzyme degradation CDK2 (% remaining) @ 0.1 μM (CDK2),Enzyme degradation CDK2 (% remaining) @ 1 μM (CDK2),Enzyme degradation CDK2 (% remaining) @ 10 μM (CDK2),Enzyme degradation CDK9 (% remaining) @ 0.1 μM (CDK9),Enzyme degradation CDK9 (% remaining) @ 1 μM (CDK9),Enzyme degradation CDK9 (% remaining) @ 10 μM (CDK9),Structure (SMILES)
60%,50%,100%,90%,20%,0%,"Cc1cccc(C(=O)NC2CC(n3cnc4c(NCc5ccc(OCC6CCN(C(=O)COc7cccc8c7C(=O)N([C@H]7CCC(=O)NC7=O)C8=O)CC6)cc5)ncnc43)C2)n1 (stereo partly drawn) [Compound 107, N-((1s,3s)-3-(6-((4-((1-(2-((2-(2,6-dioxopiperidin-3-yl)-1,3-dioxoisoindolin-4-yl)oxy)acetyl)piperidin-4-yl)methoxy)benzyl)amino)-9H-purin-9-yl)cyclobutyl)-6-methylpicolinamide]"
30%,30%,60%,0/0/0%,0/0/0%,0/0/0%,"Cc1cccc(C(=O)N[C@H]2C[C@@H](n3cnc4c(NCc5ccc(OCC6CCN(C(=O)CNc7ccc8c(c7)C(=O)N([C@H]7CCC(=O)NC7=O)C8=O)CC6)cc5)ncnc43)C2)n1 [Compound 108, N-((1s,3s)-3-(6-((4-((1-((2-(2,6-dioxopiperidin-3-yl)-1,3-dioxoisoindolin-5-yl)glycyl)piperidin-4-yl)methoxy)benzyl)amino)-9H-purin-9-yl)cyclobutyl)-6-methylpicolinamide]"
40%,60%,70%,0/0/0%,0/0/0%,0/0/0%,"Cc1cccc(C(=O)N[C@H]2C[C@@H](n3cnc4c(NCc5ccc(OCC6CCN(C(=O)CNc7cccc8c7C(=O)N([C@H]7CCC(=O)NC7=O)C8=O)CC6)cc5)ncnc43)C2)n1 [Compound 109, N-((1s,3s)-3-(6-((4-((1-((2-(2,6-dioxopiperidin-3-yl)-1,3-dioxoisoindolin-4-yl)glycyl)piperidin-4-yl)methoxy)benzyl)amino)-9H-purin-9-yl)cyclobutyl)-6-methylpicolinamide]"
100%,60%,80%,90%,20%,30%,"Cc1cccc(C(=O)NC2CC(n3cnc4c(NCc5ccc(OCC6CCN(c7ccc8c(c7)C(=O)N([C@H]7CCC(=O)NC7=O)C8=O)CC6)cc5)ncnc43)C2)n1 (stereo partly drawn) [Compound 110, N-((1s,3s)-3-(6-((4-((1-(2-(2,6-dioxopiperidin-3-yl)-1,3-dioxoisoindolin-5-yl)piperidin-4-yl)methoxy)benzyl)amino)-9H-purin-9-yl)cyclobutyl)-6-methylpicolinamide]"
100%,50%,40%,100%,0%,0%,"Cc1cccc(C(=O)N[C@H]2C[C@@H](n3cnc4c(NCc5ccc(OCCCN6CCN(C(=O)COc7ccc8c(c7)C(=O)N([C@H]7CCC(=O)NC7=O)C8=O)CC6)cc5)ncnc43)C2)n1 [Compound 112, N-((1s,3s)-3-(6-((4-(3-(4-(2-((2-(2,6-dioxopiperidin-3-yl)-1,3-dioxoisoindolin-5-yl)oxy)acetyl)piperazin-1-yl)propoxy)benzyl)amino)-9H-purin-9-yl)cyclobutyl)-6-methylpicolinamide]"
30/30/30%,30/30/30%,30/30/30%,100%,10%,0%,"Cc1cccc(C(=O)N[C@H]2C[C@@H](n3cnc4c(NCc5ccc(OCCCN6CCN(C(=O)COc7cccc8c7C(=O)N([C@H]7CCC(=O)NC7=O)C8=O)CC6)cc5)ncnc43)C2)n1 [Compound 113, N-((1s,3s)-3-(6-((4-(3-(4-(2-((2-(2,6-dioxopiperidin-3-yl)-1,3-dioxoisoindolin-4-yl)oxy)acetyl)piperazin-1-yl)propoxy)benzyl)amino)-9H-purin-9-yl)cyclobutyl)-6-methylpicolinamide]"
30%,40%,50%,0/0/0%,0/0/0%,0/0/0%,"Cc1cccc(C(=O)NC2CC(n3cnc4c(NCc5ccc(OCCCN6CCN(C(=O)CNc7ccc8c(c7)C(=O)N([C@H]7CCC(=O)NC7=O)C8=O)CC6)cc5)ncnc43)C2)n1 (stereo partly drawn) [Compound 114, N-((1s,3s)-3-(6-((4-(3-(4-((2-(2,6-dioxopiperidin-3-yl)-1,3-dioxoisoindolin-5-yl)glycyl)piperazin-1-yl)propoxy)benzyl)amino)-9H-purin-9-yl)cyclobutyl)-6-methylpicolinamide]"
30%,40%,50%,0/0/0%,0/0/0%,0/0/0%,"Cc1cccc(C(=O)N[C@H]2C[C@@H](n3cnc4c(NCc5ccc(OCCCN6CCN(C(=O)CNc7cccc8c7C(=O)N([C@H]7CCC(=O)NC7=O)C8=O)CC6)cc5)ncnc43)C2)n1 [Compound 115, N-((1s,3s)-3-(6-((4-(3-(4-((2-(2,6-dioxopiperidin-3-yl)-1,3-dioxoisoindolin-4-yl)glycyl)piperazin-1-yl)propoxy)benzyl)amino)-9H-purin-9-yl)cyclobutyl)-6-methylpicolinamide]"
30%,40%,50%,10%,0%,0%,"Cc1cccc(C(=O)N[C@H]2C[C@@H](n3cnc4c(NCc5ccc(OCCCN6CCN(c7ccc8c(c7)C(=O)N(C7CCC(=O)NC7=O)C8=O)CC6)cc5)ncnc43)C2)n1 (stereo partly drawn) [Compound 116, N-((1s,3s)-3-(6-((4-(3-(4-(2-(2,6-dioxopiperidin-3-yl)-1,3-dioxoisoindolin-5-yl)piperazin-1-yl)propoxy)benzyl)amino)-9H-purin-9-yl)cyclobutyl)-6-methylpicolinamide]"
80/80/80%,80/80/80%,80/80/80%,10%,10%,0%,"Cc1cccc(C(=O)N[C@H]2C[C@@H](n3cnc4c(NCc5ccc(OCCCN6CCN(c7cccc8c7C(=O)N([C@H]7CCC(=O)NC7=O)C8=O)CC6)cc5)ncnc43)C2)n1 [Compound 117, N-((1s,3s)-3-(6-((4-(3-(4-(2-(2,6-dioxopiperidin-3-yl)-1,3-dioxoisoindolin-4-yl)piperazin-1-yl)propoxy)benzyl)amino)-9H-purin-9-yl)cyclobutyl)-6-methylpicolinamide]"
30%,10%,0%,10%,0%,0%,"Cc1cccc(C(=O)NC2CC(n3cnc4c(NCCC5CCN(CC6CCN(C(=O)COc7cccc8c7C(=O)N([C@H]7CCC(=O)NC7=O)C8=O)CC6)CC5)ncnc43)C2)n1 (stereo partly drawn) [Compound 122, N-((1s,3s)-3-(6-((2-(1-((1-(2-((2-(2,6-dioxopiperidin-3-yl)-1,3-dioxoisoindolin-4-yl)oxy)acetyl)piperidin-4-yl)methyl)piperidin-4-yl)ethyl)amino)-9H-purin-9-yl)cyclobutyl)-6-methylpicolinamide]"
10%,10%,20%,0/0/0%,0/0/0%,0/0/0%,"Cc1cccc(C(=O)NC2CC(n3cnc4c(NCCC5CCN(CC6CCN(C(=O)CNc7cccc8c7C(=O)N([C@H]7CCC(=O)NC7=O)C8=O)CC6)CC5)ncnc43)C2)n1 (stereo partly drawn) [Compound 123, N-((1s,3s)-3-(6-((2-(1-((1-((2-(2,6-dioxopiperidin-3-yl)-1,3-dioxoisoindolin-4-yl)glycyl)piperidin-4-yl)methyl)piperidin-4-yl)ethyl)amino)-9H-purin-9-yl)cyclobutyl)-6-methylpicolinamide]"
40%,20%,10%,0/0/0%,0/0/0%,0/0/0%,"Cc1cccc(C(=O)N[C@H]2C[C@@H](n3cnc4c(NCCC5CCN(CC6CCN(C(=O)COc7ccc8c(c7)C(=O)N([C@H]7CCC(=O)NC7=O)C8=O)CC6)CC5)ncnc43)C2)n1 [Compound 124, N-((1s,3s)-3-(6-((2-(1-((1-(2-((2-(2,6-dioxopiperidin-3-yl)-1,3-dioxoisoindolin-5-yl)oxy)acetyl)piperidin-4-yl)methyl)piperidin-4-yl)ethyl)amino)-9H-purin-9-yl)cyclobutyl)-6-methylpicolinamide]"
